Where two headings read alike, the source gives them in different places.
System: 6C3HED lymphosarcoma
Experiment: animal or person
Format: in vivo
Conditions: for inhibition in vivo at 75 mg/kg: read-out: % inhibition of tumor growth, oral, 75 mg/kg, BIDX 8
Protocol: The compounds were tested in C3H mice bearing a 6C3HED lymphosarcoma, also known as the Gardner lymphosarcoma (GLS), and in a variety of human tumor xenografts in CD1 nu/nu mice, including CX-1, LX-1, HXGC3, and VRC5. The 6C3HED lymphosarcoma was obtained from the Division of Cancer Treatment, National […] Institute, Tumor Bank, maintained at E. G. and G. Mason Research (Worcester, Mass.). The CX-1 human colon carcinoma and the LX-1 human lung carcinoma xenografts were obtained from the National Cancer Institute. The HXGC3 and VRC5 human colon xenografts were obtained from Dr. P. J. Houghton, St. Jude Children's Hospital in Memphis (see Br. J. Cancer, 37, 213 (1978)). First passage tumor was stored in liquid nitrogen using standard techniques. The transplanted tumor was reestablished from the Tumor Bank every six months or as needed. The tumor was maintained by serial passage twice weekly in C3H mice.
In the procedure the tumor was removed from passage animals and minced into 1- to 3-mm square fragments using sterile techniques. Tumor pieces were checked for sterility using both Antibiotic Medium 1 and Brain Heart Infusion (Difco, Detroit, Mich.). Recipient mice were shaved and tumor pieces were implanted subcutaneously in the auxiliary region by trocar. Drug therapy on the appropriate schedule was initiated on the day after tumor implant for 6C3HED and after a seven (7) day delay for xenografts (or other delay as noted in Table 2). The compound being tested was mixed with 2.5% Emulphor EL620 from GAF Corporation (1:40 dilution in saline). Food and water were provided ad libitium. The drug was administered orally in 0.5 ml of 2.5% Emulphor (unless otherwise indicated). The tumor was measured the day after treatment ended with two dimensional measurements (width and length) of the tumor taken using automated digital calipers interfaced to a microcomputer. Approximate weight for the tumor was calculated using the following formula [Worzalla, J. F., et al., Invest. New Drugs, 8, 241 (1990], (tumor weight in mg)=(width in mm)^2 ×(length in mm)/2.
At least one control group of an equal number of mice was treated with the same volume of 2.5% Emulphor only. The percent inhibition was determined by subtracting the ratio of the mean tumor size of the test group relative to the control group from one and multiplying the result times 100.
The results of several experiments in mice bearing a 6C3HED lymphosarcoma (or other tumor where indicated) when the indicated compounds were administered are provided in Table 2. In Table 2, column 1 gives the Example number of the compound used, column 2 lists the dose level in mg/kg, column 3 provides the percent inhibition of tumor growth, column 4 gives the number of mice which died relative to the total number of animals in the group, column 5 gives the method of administration of the compound, and column 6 gives the dosage schedule. The protocol used with other tumors was the same as with the 6C3HED lymphosarcoma.

[1] = Mus musculus, 6C3HED, ip, read-out: % inhibition of tumor growth, IP, 150 mg/kg, DX 8
[2] = Mus musculus, 6C3HED, po, read-out: % inhibition of tumor growth, oral, 150 mg/kg, BIDX 8
[3] = Mus musculus, 6C3HED, po, read-out: % inhibition of tumor growth, oral, 150 mg/kg, DX 8
[4] = Mus musculus, 6C3HED, po, read-out: % inhibition of tumor growth, oral, 300 mg/kg, BIDX 8
[5] = Mus musculus, 6C3HED, po, read-out: % inhibition of tumor growth, oral, 300 mg/kg, DX 8

SMILES: CC(=O)NS(=O)(=NC(=O)Nc1ccc(Cl)cc1)c1ccc(C)cc1 (stereo not drawn) [Example 15]
- Tox/Tot (mice which died / total) (IP, 150 mg/kg, DX 8): 0/10
- % inhibition of tumor growth (IP, 300 mg/kg, DX 8): TOX
- Tox/Tot (mice which died / total) (IP, 300 mg/kg, DX 8): 10/10
- inhibition in vivo at 150 mg/kg [1]: 0%
- inhibition in vivo at 150 mg/kg [2]: 0%
- inhibition in vivo at 150 mg/kg [3]: 23%
- inhibition in vivo at 300 mg/kg [4]: 84%
- inhibition in vivo at 300 mg/kg [5]: 44%
- Tox/Tot (mice which died / total) (oral, 150 mg/kg, BIDX 8): 0/10
- Tox/Tot (mice which died / total) (oral, 150 mg/kg, DX 8): 0/10
- Tox/Tot (mice which died / total) (oral, 300 mg/kg, BIDX 8): 0/10
- Tox/Tot (mice which died / total) (oral, 300 mg/kg, DX 8): 0/10

SMILES: CC(=O)N(C)S(=O)(=NC(=O)Nc1ccc(Cl)cc1)c1ccc(C)cc1 (stereo not drawn) [Example 16, N-[[(4-chlorophenyl)amino]carbonyl]-N'-acetyl-N'-methyl-4-methylbenzenesulfonimidamide]
- inhibition in vivo at 150 mg/kg [2]: 98%
- inhibition in vivo at 300 mg/kg [4]: 99%
- Tox/Tot (mice which died / total) (oral, 150 mg/kg, BIDX 8): 1/10
- Tox/Tot (mice which died / total) (oral, 300 mg/kg, BIDX 8): 1/10

SMILES: Cc1cc(C)cc(S(N)(=O)=NC(=O)Nc2ccc(Cl)cc2)c1 (stereo not drawn) [Example 39]
- inhibition in vivo at 100 mg/kg (Mus musculus, 6C3HED, po, read-out: % inhibition of tumor growth, oral, 100 mg/kg, BIDX 8): 44%
- inhibition in vivo at 200 mg/kg (Mus musculus, 6C3HED, po, read-out: % inhibition of tumor growth, oral, 200 mg/kg, BIDX 8): 77%
- Tox/Tot (mice which died / total) (oral, 100 mg/kg, BIDX 8): 0/10
- Tox/Tot (mice which died / total) (oral, 200 mg/kg, BIDX 8): 0/10

SMILES: Cc1ccc(S(=O)(=NC(C)C)NC(=O)Nc2ccc(Cl)cc2)cc1 (stereo not drawn) [Example 6, N-[[(4-chlorophenyl)amino]carbonyl]-N'-(1-methylethyl)-4-methylbenzenesulfonimidamide]
- inhibition in vivo at 18.75 mg/kg (Mus musculus, 6C3HED, po, read-out: % inhibition of tumor growth, oral, 18.75 mg/kg, BIDX 8): 18%
- inhibition in vivo at 37.5 mg/kg (Mus musculus, 6C3HED, po, read-out: % inhibition of tumor growth, oral, 37.5 mg/kg, BIDX 8): 60%
- inhibition in vivo at 75 mg/kg (Mus musculus, 6C3HED, po): 86%
- inhibition in vivo at 150 mg/kg [2]: 93%
- inhibition in vivo at 300 mg/kg [4]: 99%
- Tox/Tot (mice which died / total) (oral, 18.75 mg/kg, BIDX 8): 0/10
- Tox/Tot (mice which died / total) (oral, 37.5 mg/kg, BIDX 8): 0/10
- Tox/Tot (mice which died / total) (oral, 75 mg/kg, BIDX 8): 0/10
- % inhibition of tumor growth (oral, 150 mg/kg, BIDX 8): 99%
- Tox/Tot (mice which died / total) (oral, 300 mg/kg, BIDX 8): 2/10

SMILES: CC(=O)N(C)S(=O)(=NC(=O)Nc1ccc(Cl)cc1)c1ccc(C)c(C)c1 (stereo not drawn) [Example 63]
- inhibition in vivo at 25 mg/kg (Mus musculus, 6C3HED, po, read-out: % inhibition of tumor growth, oral, 25 mg/kg, DX 8): 79%
- inhibition in vivo at 50 mg/kg (Mus musculus, 6C3HED, po, read-out: % inhibition of tumor growth, oral, 50 mg/kg, DX 8): 95%
- Tox/Tot (mice which died / total) (oral, 25 mg/kg, DX 8): 0/10
- Tox/Tot (mice which died / total) (oral, 50 mg/kg, DX 8): 0/10

SMILES: CC(=O)N(C(=O)N=[S+]([O-])(c1ccc(C)cc1)N(C)C(C)=O)c1ccc(Cl)cc1 (stereo not drawn) [Example 17]
- inhibition in vivo at 150 mg/kg [2]: 83%
- inhibition in vivo at 300 mg/kg [4]: 96%
- Tox/Tot (mice which died / total) (oral, 150 mg/kg, BIDX 8): 0/10
- Tox/Tot (mice which died / total) (oral, 300 mg/kg, BIDX 8): 0/10

SMILES: CC(=O)OCc1ccc(S(=N)(=O)NC(=O)Nc2ccc(Cl)cc2)cc1 (stereo not drawn) [Example 49, N-[[(4-chlorophenyl)amino]carbonyl]-4-(acetoxymethyl)benzenesulfonimidamide]
- Tox/Tot (mice which died / total) (IP, 12.5 mg/kg, DX 8): 0/10
- Tox/Tot (mice which died / total) (IP, 25 mg/kg, DX 8): 0/10
- Tox/Tot (mice which died / total) (IP, 50 mg/kg, DX 8): 1/10
- Tox/Tot (mice which died / total) (IP, 150 mg/kg, DX 8): 8/10
- % inhibition of tumor growth (IP, 300 mg/kg, DX 8): TOX
- Tox/Tot (mice which died / total) (IP, 300 mg/kg, DX 8): 10/10
- inhibition in vivo at 12.5 mg/kg (Mus musculus, 6C3HED, ip, read-out: % inhibition of tumor growth, IP, 12.5 mg/kg, DX 8): 29%
- inhibition in vivo at 25 mg/kg (Mus musculus, 6C3HED, ip, read-out: % inhibition of tumor growth, IP, 25 mg/kg, DX 8): 36%
- inhibition in vivo at 50 mg/kg (Mus musculus, 6C3HED, ip, read-out: % inhibition of tumor growth, IP, 50 mg/kg, DX 8): 63%
- inhibition in vivo at 150 mg/kg [1]: 99%
- inhibition in vivo at 25 mg/kg (Mus musculus, 6C3HED, po, read-out: % inhibition of tumor growth, oral, 25 mg/kg, BIDX 8): 64%
- inhibition in vivo at 50 mg/kg (Mus musculus, 6C3HED, po, read-out: % inhibition of tumor growth, oral, 50 mg/kg, BIDX 8): 87%
- inhibition in vivo at 75 mg/kg (Mus musculus, 6C3HED, po): 96%
- inhibition in vivo at 150 mg/kg [2]: 99%
- inhibition in vivo at 300 mg/kg [4]: 100%
- Tox/Tot (mice which died / total) (oral, 25 mg/kg, BIDX 8): 0/10
- Tox/Tot (mice which died / total) (oral, 50 mg/kg, BIDX 8): 0/10
- Tox/Tot (mice which died / total) (oral, 75 mg/kg, BIDX 8): 0/10
- Tox/Tot (mice which died / total) (oral, 150 mg/kg, BIDX 8): 0/10
- Tox/Tot (mice which died / total) (oral, 300 mg/kg, BIDX 8): 3/10

SMILES: Cc1ccc(NC(=O)N=S(N)(=O)c2ccc(C)cc2)cc1 (stereo not drawn) [Example 24]
- Tox/Tot (mice which died / total) (IP, 150 mg/kg, DX 8): 0/10
- Tox/Tot (mice which died / total) (IP, 300 mg/kg, DX 8): 0/10
- inhibition in vivo at 150 mg/kg [1]: 31%
- inhibition in vivo at 300 mg/kg (Mus musculus, 6C3HED, ip, read-out: % inhibition of tumor growth, IP, 300 mg/kg, DX 8): 52%
- inhibition in vivo at 150 mg/kg [3]: 10%
- inhibition in vivo at 300 mg/kg [5]: 40%
- Tox/Tot (mice which died / total) (oral, 150 mg/kg, DX 8): 0/10
- Tox/Tot (mice which died / total) (oral, 300 mg/kg, DX 8): 0/10
